{"source": "patent EP4748847A1", "about": "“PEPTIDE COMPLEX HAVING VEGFR -2 AGONIST ACTIVITY” (Peptidream Inc, priority 2023, dated 2025)", "key": {"[1]": {"test_system": "HUVEC", "test": "HUVEC proliferation promotion evaluation (CellTiter-Glo)", "assay_type": "cell-based, human", "settings": "2 days culture, % activity, maximum VEGF165a signal = 100%, peptide 1, 10, 100 nM", "description": "To evaluate the biological activity of the VEGFR-2 agonist peptide of the present invention, an HUVEC proliferation promotion evaluation was conducted. HUVECs cultured as described above were detached using Tryple (Thermo Fisher Scientific). They were then seeded at 10,000 cells per well onto Nunc™ MicroWell™ 96 -Well, Nunclon Delta-Treated, Flat-Bottom Microplate (cat. #136101) . After 24 hours, cells were starved by replacing with EBM-2 medium (LONZA) containing 0.5% FBS (Thermo Fisher Scientific), 0.1% Heparin (included with the above Lonza CC-3162), and 0.1% Gentamicin (Nacalai) and cultured for 18 hours. Subsequently, Recombinant Human VEGF 165a Protein (R&D Systems) or the peptide was added, and the cells were cultured for 2 days at 37°C in a CO2 incubator. Assays were performed according to the CellTiter-Glo (Promega) kit protocol, and signals were detected using a SpectraMax Paradigm multimode microplate reader (Molecular Devices) was used for signal detection. The obtained signals were analyzed using GraphPad Prism, and % activity was calculated with the maximum signal induced by VEGF165a set as 100% and the unstimulated control as 0%.\nThe VEGF165a concentration was evaluated at six points (0.006, 0.03, 0.16, 0.8, 4, 20 nM) using 1/5-fold dilutions starting from 20 nM to determine the maximum value (100%). […]"}, "[2]": {"test_system": "ERK", "test": "pERK AlphaLISA assay (ERK phosphorylation, p-Erk1/2 Thr202/Tyr204) in HUVEC lysate", "assay_type": "cell-based, human", "settings": "HUVEC lysate of the pVEGFR assay; % activity, maximum VEGF165a signal = 100%, unstimulated = 0%; peptide 10, 100 nM (dimer structures 2-41)", "description": "To evaluate the intracellular signaling activation ability of the VEGFR-2 agonist peptides of the present invention, ERK phosphorylation was verified. Using the lysate employed in the pVEGFR AlphaLISA assay, the assay was performed according to the protocol of the AlphaLISA SureFire Ultra p-Erk1/2 (Thr202/Tyr204) Assay Kit (PerkinElmer). Signal detection was performed using a SpectraMax Paradigm multimode microplate reader (Molecular Devices). The obtained signals were analyzed using GraphPad Prism, and % activity was calculated with the maximum signal induced by VEGF165a set as 100% and the unstimulated control as 0%.\nThe VEGF165a concentration was evaluated at five points (0.08, 0.31, 1.25, 5, 20 nM) using 1/4-fold dilutions starting from 20 nM to determine the maximum value (100%). Peptide concentrations tested were: 3.2, 16, 80 nM for dimer structure […], 100 nM for dimer structures numbers 2-41; and 1.25, 5, 20 nM for dimer structures numbers 42-57.\nFor % activity, peptides showing ≥50% activity at 3.2 nM were designated 1-A, those showing ≥50% activity at 16 nM were designated 1-B, those showing ≥50% activity at 80 nM were designated 1-C, and those showing ≥1% but <50% activity at 80 nM were designated 1-D. […]"}, "[3]": {"target": "T1, VEGFR-2 (Homo sapiens, UniProt P35968)", "T1 construct": "endogenous in cells; host or cells: HUVEC", "T1 sequence (P35968 20-1356)": "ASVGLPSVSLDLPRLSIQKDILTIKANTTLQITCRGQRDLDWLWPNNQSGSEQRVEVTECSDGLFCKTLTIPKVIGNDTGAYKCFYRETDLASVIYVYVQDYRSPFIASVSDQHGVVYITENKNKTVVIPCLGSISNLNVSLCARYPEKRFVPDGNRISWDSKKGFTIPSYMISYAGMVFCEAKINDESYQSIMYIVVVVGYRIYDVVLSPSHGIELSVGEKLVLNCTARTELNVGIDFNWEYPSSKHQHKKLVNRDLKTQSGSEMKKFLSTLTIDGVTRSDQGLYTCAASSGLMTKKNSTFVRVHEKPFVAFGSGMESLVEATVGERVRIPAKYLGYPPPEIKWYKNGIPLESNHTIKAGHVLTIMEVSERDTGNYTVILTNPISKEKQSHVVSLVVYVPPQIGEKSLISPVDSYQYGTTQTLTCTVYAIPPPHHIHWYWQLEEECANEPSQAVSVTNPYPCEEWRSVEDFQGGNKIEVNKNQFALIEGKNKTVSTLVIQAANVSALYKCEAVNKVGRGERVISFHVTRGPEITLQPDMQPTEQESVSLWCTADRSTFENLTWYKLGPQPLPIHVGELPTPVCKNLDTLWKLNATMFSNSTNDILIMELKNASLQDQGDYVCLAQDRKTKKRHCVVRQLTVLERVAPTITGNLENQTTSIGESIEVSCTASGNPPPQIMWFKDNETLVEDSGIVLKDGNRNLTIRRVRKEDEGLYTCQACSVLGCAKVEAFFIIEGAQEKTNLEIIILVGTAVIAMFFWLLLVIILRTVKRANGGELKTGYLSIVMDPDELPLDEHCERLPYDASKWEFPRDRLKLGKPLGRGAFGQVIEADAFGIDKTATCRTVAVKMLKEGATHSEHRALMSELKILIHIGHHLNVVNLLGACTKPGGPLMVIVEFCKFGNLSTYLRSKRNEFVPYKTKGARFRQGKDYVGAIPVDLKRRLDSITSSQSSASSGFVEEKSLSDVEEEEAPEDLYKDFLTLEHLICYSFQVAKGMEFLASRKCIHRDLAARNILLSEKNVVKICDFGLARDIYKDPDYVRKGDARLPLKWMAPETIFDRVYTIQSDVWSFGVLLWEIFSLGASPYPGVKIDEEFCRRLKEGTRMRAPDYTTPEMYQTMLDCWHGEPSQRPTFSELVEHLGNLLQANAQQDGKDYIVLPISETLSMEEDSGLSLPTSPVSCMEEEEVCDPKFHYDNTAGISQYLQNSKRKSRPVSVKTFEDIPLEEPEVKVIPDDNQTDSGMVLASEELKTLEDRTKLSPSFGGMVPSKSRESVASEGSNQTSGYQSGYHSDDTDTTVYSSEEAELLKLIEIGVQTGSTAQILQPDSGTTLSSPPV", "test": "pVEGFR AlphaLISA assay (VEGFR-2 phosphorylation, p-Tyr1175) in HUVECs", "assay_type": "cell-based", "settings": "10 minutes stimulation, % activity, maximum VEGF165a signal = 100%, unstimulated = 0%, peptide 10, 100 nM (dimer structures 2-41)", "procedure,_shortened": "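HUVECs grown 2 days, starved 18 hours in EBM-2 with 0.5% FBS, then stimulated 10 minutes at 37°C with peptide or VEGF165a (0.08–20 nM). VEGFR-2 p-Tyr1175 in lysates read by AlphaLISA; % activity scaled to maximal VEGF165a signal (100%) and unstimulated control (0%), binned by activity at tested peptide concentrations.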"}}, "note": "Where no end group is shown, it is not given here."}
{"substance": "Dimer Structure No. 1: complex of Peptide Sequence No. 3 (W-W-V-D-V-Q-D-D-L-Y-F-V-D-C-G) and Linker Structure No. 1 (PEG12c-K-PEG12c), Conjugation No. 15 (WWVDVQDDLYFVDCG; also: dimer via PEG12c-K-PEG12c linker)", "values": [{"measurement": "proliferation", "setting": "[1]", "result": "4-D (≥1% but <50% activity at 100 nM)"}, {"measurement": "pERK Assay Results", "setting": "[2]", "result": "2-B (50% or more activity at 100 nM)"}, {"measurement": "pVEGFR2 Assay Results", "setting": "[3]", "result": "2-C (1% or more but less than 50% activity at 100 nM)"}]}
